# Laboratory results published in ChEMBL document CHEMBL4402574, “Discovery of Acylsulfonohydrazide-Derived Inhibitors of the Lysine Acetyltransferase, KAT6A, as Potent Senescence-Inducing Anti-Cancer Agents” (J Med Chem, 2020).
# Columns and labels:
# [1] = Kinetic solubility of the compound in 0.01 M HCl at pH 2 by nephelometry; type: physicochemical; conditions: read-out: Kinetic_solubility
# [2] = Kinetic solubility of the compound in phosphate buffer at pH 6.5 by nephelometry; type: physicochemical; conditions: read-out: Kinetic_solubility
# [3] = Apparent permeability across apical to basolateral side in human Caco2 cells measured over 90 mins by LC-MS/MS analysis; type: ADME, cell-based; conditions: Caco-2
# [4] = Cysteine reactivity assessed as induction of confirmational change in 13C-methyl-labeled La antigen at 400 uM incubated for 1 hr at 37 degC followed by incubation at 30 degC for 15 mins in presence of DTT by ALARM NMR assay
# [5] = Cysteine reactivity assessed as induction of confirmational change in 13C-methyl-labeled La antigen at 400 uM incubated for 1 hr at 37 degC followed by incubation at 30 degC for 15 mins in absence of DTT by ALARM NMR assay
# [6] = Cmax in Sprague-Dawley rat at 33 mg/kg, po administered as suspension using HPMC formulation; type: ADME, organism-based; set-up: dose 33 mg/kg, route oral; conditions: in vivo
# [7] = in vivo; conditions: Sprague-Dawley, rat, po, 33 mg/kg
# [8] = Tmax in Sprague-Dawley rat at 31 mg/kg, po using PEG400/Solutol HS-15/water formulation; type: ADME, organism-based; conditions: in vivo
# [9] = AUC (0 to infinity) in Sprague-Dawley rat at […], iv; type: ADME, organism-based; set-up: dose 2.9 mg/kg, time infinity, route intravenous; conditions: in vivo
# [10] = Drug excretion in Sprague-Dawley rat urine at […], iv; type: ADME, organism-based; conditions: in vivo, BLD = below limit of detection
# [11] = AUC (0 to infinity) in Sprague-Dawley rat at 31 mg/kg, po using PEG400/Solutol HS-15/water formulation; type: ADME, organism-based; set-up: dose 31 mg/kg, time infinity, route oral; conditions: in vivo
# [12] = Cmax in Sprague-Dawley rat at 31 mg/kg, po using PEG400/Solutol HS-15/water formulation; type: ADME, organism-based; set-up: dose 31 mg/kg, route oral; conditions: in vivo
# [13] = Drug excretion in Sprague-Dawley rat urine at 33 mg/kg, po administered as suspension using HPMC formulation; type: ADME, organism-based; conditions: read-out: Drug excretion
# [14] = Drug excretion in Sprague-Dawley rat urine at 31 mg/kg, po using PEG400/Solutol HS-15/water formulation; type: ADME, organism-based; conditions: read-out: Drug excretion
# [15] = Tmax in Sprague-Dawley rat at 33 mg/kg, po administered as suspension using HPMC formulation; type: ADME, organism-based; conditions: in vivo
# [16] = Volume of distribution at steady state in Sprague-Dawley rat at […], iv; type: ADME, organism-based; conditions: in vivo, read-out: Vdss
# [17] = AUC (0 to infinity) in Sprague-Dawley rat at 33 mg/kg, po administered as suspension using HPMC formulation; type: ADME, organism-based; set-up: dose 33 mg/kg, route oral, time infinity; conditions: in vivo
# [18] = Tmax in Swiss mouse at 30 mg/kg, ip by UPLC analysis; type: ADME, organism-based; conditions: in vivo
# [19] = Cmax in Swiss mouse at 30 mg/kg, ip by UPLC analysis; type: ADME, organism-based; set-up: dose 30 mg/kg, route intraperitoneal; conditions: in vivo
solubility kinetic [1] [µg/mL],solubility kinetic [2] [µg/mL],Papp A→B at […] [3] [×10⁻⁶ cm/s],Compound,further results
50 to 100,50 to 100,–,O=C(NNS(=O)(=O)c1ccccc1F)c1cccc(-n2cccn2)c1,–
–,–,55.3,O=C(NNS(=O)(=O)c1ccccc1F)c1cccc(-c2ccco2)c1,–
–,–,60.4,O=C(NNS(=O)(=O)c1ccccc1F)c1cccc(I)c1,–
6.3 to 12.5,6.3 to 12.5,–,Cc1cc(C(=O)NNS(=O)(=O)c2ccccc2F)cc(-c2ccco2)c1,–
12.5 to 25,12.5 to 25,47,CCOc1cc(C)cc(C(=O)NNS(=O)(=O)c2ccccc2F)c1,Drug metabolism [4]: Metabolite_Notdetected; Drug metabolism [5]: Metabolite_Notdetected
25 to 50,25 to 50,–,O=C(NNS(=O)(=O)c1ccccc1F)c1cc(F)cc(-n2cccn2)c1,–
> 100,12.5 to 25,–,Cc1cc(C(=O)NNS(=O)(=O)c2ccccc2F)cc(-c2ccccn2)c1,–
50 to 100,6.3 to 12.5,63,Cc1cc(-c2ccccn2)cc(C(=O)NNS(=O)(=O)c2ccccc2)c1F,–
–,–,77.3,CCCOc1cccc(C(=O)NNS(=O)(=O)c2ccccc2F)c1,–
–,–,27.8,O=C(NNS(=O)(=O)c1ccccc1F)c1cc(Cl)cc(-c2cccs2)c1,–
50 to 100,50 to 100,–,C=CCOc1ccc(F)c(C(=O)NNS(=O)(=O)c2ccccc2)c1,–
6.3 to 12.5,6.3 to 12.5,48,Cc1cc(-n2cccn2)cc(C(=O)NNS(=O)(=O)c2ccccc2)c1F,–
25 to 50,25 to 50,53,Cc1cc(-n2nccn2)cc(C(=O)NNS(=O)(=O)c2ccccc2)c1F,–
12.5 to 25,12.5 to 25,–,Cc1cc(OC(C)C)cc(C(=O)NNS(=O)(=O)c2ccccc2F)c1,–
25 to 50,25 to 50,60,O=C(NNS(=O)(=O)c1ccccc1F)c1cc(F)cc(-c2ccccn2)c1 [WM-1119],Cmax [6]: 2.9 µM; bioavailability [7]: 18%; Tmax [8]: 1 h; AUC(0-inf) [9]: 6.2 µM·h; Drug metabolism [4]: Metabolite_Notdetected; Drug excretion [10]: Bld; AUC(0-inf) [11]: 38 µM·h; Drug metabolism [5]: Metabolite_Notdetected; Cmax [12]: 14 µM; dose excreted [13]: 0.009%; dose excreted [14]: 0.078%; Tmax [15]: 1 h; Vd [16]: 0.72 L/kg; AUC(0-inf) [17]: 13 µM·h
12.5 to 25,12.5 to 25,–,Cc1cc(C(=O)NNS(=O)(=O)c2ccccc2F)cc(-n2cccn2)c1,–
12.5 to 25,12.5 to 25,65,CCOc1cc(C)c(F)c(C(=O)NNS(=O)(=O)c2ccccc2)c1,–
50 to 100,50 to 100,–,CC(C)Oc1cccc(C(=O)NNS(=O)(=O)c2ccccc2F)c1,–
50 to 100,12.5 to 25,–,O=C(NNS(=O)(=O)c1ccccc1F)c1cccc(-c2ccccn2)c1,–
50 to 100,50 to 100,77,Cc1cc(-c2ncccn2)cc(C(=O)NNS(=O)(=O)c2ccccc2)c1F,Tmax [18]: 0.28 h; Cmax [19]: 12.1 µM
